In US8691800B2, “Quinoline derivatives as antibacterial agents” (Janssen Pharmaceutica N.V., priority 2005, dated 2014):
In brackets after ≈: the same amount, converted by molar mass.

Assays:
[1] = tested on: Pseudomonas aeruginosa (ATCC27853); assay: Microtitre plate assay, IC90 for bacterial growth; assay type: cell-based; details: for IC90: Pseudomonas aeruginosa, ATCC27853, 90% inhibitory concentration for bacterial growth, read-out: IC90 PAE 27853
Experimental: (§1) The bacteria used in this study were grown overnight in flasks containing 100 ml Mueller-Hinton Broth (Becton Dickinson—cat. no. 275730) in sterile de-ionized water, with shaking, at 37° C. Stocks (0.5 ml/tube) were stored at 70° C. until use. Bacteria titrations were performed in microtiter plates and colony forming units (CFUs) were determined. In general, an inoculum level of approximately 100 CFUs was used for susceptibility testing.
(§2) Anti bacterial Susceptibility Testing: IC90 Determination
(§3) Flat-bottom, sterile 96-well plastic microtiter plates were filled with 180 μl of sterile deionized water, supplemented with 0.25% BSA. Subsequently, stock solutions (7.8× final test concentration) of compounds were added in 45 μl volumes in column 2. Serial five-fold dilutions (45 μl in 180 μl) were made directly in the microtiter plates from column 2 to reach column 11. Untreated control samples with (column 1) and without (column 12) inoculum were included in each microtiter plate. Depending on the bacteria type, approximately 10 to 60 CFU per well of bacteria inoculum (100 TCID50), in a volume of 100 μl in 2.8× Mueller-Hinton broth medium, was added to the rows A to H, except column 12. The same volume of broth medium without inoculum was added to column 12 in row A to H. The cultures were incubated at 37° C. for 24 hours under a normal atmosphere (incubator with open air valve and continuous ventilation). At the end of incubation, one day after inoculation, the bacterial growth was quantitated fluorometrically. Therefore resazurin (0.6 mg/ml) was added in a volume of 20 μl to all wells 3 hours after inoculation, and the plates were re-incubated overnight. A change in colour from blue to pink indicated the growth of bacteria. The fluorescence was read in a computer-controlled fluorometer (Cytofluor Biosearch) at an excitation wavelength of 530 nm and an emission wavelength of 590 nm. The % growth inhibition achieved by the compounds was calculated according to standard methods. The IC90 (expressed in μg/ml) was defined as the 90% inhibitory concentration for bacterial growth.

[2] = tested on: Streptococcus pyogens (ATCC8668); assay: Microtitre plate assay, IC90 for bacterial growth; assay type: cell-based; details: for IC90: Streptococcus, ATCC8668, 90% inhibitory concentration for bacterial growth, read-out: IC90 SPY 8668
Experimental: as §1, §2, §3

[3] = tested on: Enterococcus faecalis (ATCC14506); assay: Microtitre plate assay, IC90 for bacterial growth; assay type: cell-based; details: 90% inhibitory concentration for bacterial growth; for IC90: read-out: IC90 EFA 14506
Experimental: as §1, §2, §3

[4] = tested on: Listeria monocytogenes (ATCC49594); assay: Microtitre plate assay, IC90 for bacterial growth; assay type: cell-based; details: for IC90: Listeria monocytogenes, ATCC49594, 90% inhibitory concentration for bacterial growth, read-out: IC90 LMO 49594
Experimental: as §1, §2, §3

[5] = tested on: Staphylococcus aureus (ATCC29213); assay: Microtitre plate assay, IC90 for bacterial growth; assay type: cell-based; details: 90% inhibitory concentration for bacterial growth, 24 hours at 37° C., resazurin; for IC90: Staphylococcus aureus, ATCC29213, 24 h, read-out: IC90 STA 29213
Experimental: as §1, §2, §3

[6] = tested on: Bacillus subtilis (ATCC43639); assay: Microtitre plate assay, IC90 for bacterial growth; assay type: cell-based; details: for IC90: Bacillus subtilis, ATCC43639, 90% inhibitory concentration for bacterial growth, read-out: IC90 BSU 43639; for IC90 BSU 43639: 90% inhibitory concentration for bacterial growth
Experimental: as §1, §2, §3

[7] = tested on: methicilline resistant Staphylococcus aureus (MRSA) (a clinical isolate from the University of Antwerp); assay: Microtitre plate assay, IC90 for bacterial growth; assay type: cell-based; details: 90% inhibitory concentration for bacterial growth; for IC90: Staphylococcus aureus, MRSA, read-out: IC90 STA RMETHIC
Experimental: as §1, §2, §3

[8] = tested on: Enterococcus faecalis (ATCC29212); assay: Microtitre plate assay, IC90 for bacterial growth; assay type: cell-based; details: for IC90: Enterococcus faecalis, ATCC29212, 90% inhibitory concentration for bacterial growth, read-out: IC90 EFA 29212
Experimental: as §1, §2, §3

[9] = tested on: Staphylococcus aureus (ATCC25923); assay: Microtitre plate assay, IC90 for bacterial growth; assay type: cell-based; details: for IC90: Staphylococcus aureus, ATCC25923, 90% inhibitory concentration for bacterial growth, read-out: IC90 STA 25923
Experimental: as §1, §2, §3

[10] = tested on: Streptococcus pneumoniae (ATCC6305); assay: Microtitre plate assay, IC90 for bacterial growth; assay type: cell-based; details: for IC90: Streptococcus pneumoniae, ATCC6305, 90% inhibitory concentration for bacterial growth, read-out: IC90 SPN 6305; for IC90 SPN 6305: 90% inhibitory concentration for bacterial growth
Experimental: as §1, §2, §3

[11] = tested on: Streptococcus mutans (ATCC33402); assay: Microtitre plate assay, IC90 for bacterial growth; assay type: cell-based
Experimental: as §1, §2, §3

[12] = tested on: Escherichia coli (ATCC35218); assay: Microtitre plate assay, IC90 for bacterial growth; assay type: cell-based; details: 90% inhibitory concentration for bacterial growth
Experimental: as §1, §2, §3

[13] = tested on: Escherichia coli (ATCC25922); assay: Microtitre plate assay, IC90 for bacterial growth; assay type: cell-based; details: 90% inhibitory concentration for bacterial growth, read-out: IC90 ECO 25922
Experimental: as §1, §2, §3

[14] = tested on: Staphylococcus aureus (ATCC43300); assay: Microtitre plate assay, IC90 for bacterial growth; assay type: cell-based; details: 90% inhibitory concentration for bacterial growth
Experimental: as §1, §2, §3

[15] = tested on: Escherichia coli (ATCC1403); assay: Microtitre plate assay, IC90 for bacterial growth; assay type: cell-based
Experimental: as §1, §2, §3

[16] = 90% inhibitory concentration for bacterial growth

SMILES | IC90 [1] | IC90 [2] | IC90 [3] | IC90 [4] | IC90 [5] | IC90 [6] | IC90 [7] | IC90 [8] | IC90 [9] | IC90 [10] | melting point | IC90 BSU 43639 [6] | IC90 STA 43300 [14] | IC90 SPN 6305 [10] | other results
COc1nc2ccc(Br)cc2cc1C(c1ccccc1)C1(C2=CC=CCC2)CCN(C)CO1 (single isomer, unassigned) [Compound 8] | 10 µg/mL (≈ 19.8 µM) | 12.7 µg/mL (≈ 25.1 µM) | 40 µg/mL (≈ 79.1 µM) | 12.7 µg/mL (≈ 25.1 µM) | 12.7 µg/mL (≈ 25.1 µM) | 12.7 µg/mL (≈ 25.1 µM) | 12.7 µg/mL (≈ 25.1 µM) | 12.7 µg/mL (≈ 25.1 µM) | 12.7 µg/mL (≈ 25.1 µM) | 12.7 µg/mL (≈ 25.1 µM) | 168 °C | – | – | – | –
COc1nc2ccc(Cl)cc2cc1C(c1ccccc1)C1(c2cccc3ccccc23)CCN(C)CO1 (single isomer, unassigned) [Compound 14] | 12.8 µg/mL (≈ 25.1 µM) | 12.8 µg/mL (≈ 25.1 µM) | 12.8 µg/mL (≈ 25.1 µM) | 12.8 µg/mL (≈ 25.1 µM) | 12.8 µg/mL (≈ 25.1 µM) | 12.8 µg/mL (≈ 25.1 µM) | 12.8 µg/mL (≈ 25.1 µM) | 12.8 µg/mL (≈ 25.1 µM) | 12.8 µg/mL (≈ 25.1 µM) | 12.8 µg/mL (≈ 25.1 µM) | 189 °C | – | – | – | –
COc1nc2ccc(Cl)cc2cc1C(c1ccccc1)C1(c2cccc3ccccc23)CC[N+](C)(C)CO1.[I-] (single isomer, unassigned) [Compound 15] | – | – | – | – | – | – | – | – | – | – | 211 °C | 2.1 µg/mL | 9.3 µg/mL | 2.3 µg/mL | IC90 PAE 27853 [1, 16]: 9.3 µg/mL; IC90 SPY 8668 [2, 16]: 1.9 µg/mL; IC90 EFA 14506 [3]: 2.1 µg/mL; IC90 SMU 33402 [11, 16]: 1.9 µg/mL; IC90 ECO 35218 [12]: 41.6 µg/mL; IC90 LMO 49594 [4, 16]: 2.1 µg/mL; IC90 STA 29213 [5]: 1.86 µg/mL; IC90 [13]: 10.5 µg/mL; IC90 STA RMETHIC [7]: 1.9 µg/mL; IC90 EFA 29212 [8, 16]: 2.1 µg/mL; IC90 STA 25923 [9, 16]: 2.1 µg/mL; IC90 ECO 1403 [15, 16]: 10.5 µg/mL
COc1nc2ccc(Cl)cc2cc1C(c1ccccc1)C1(c2cccc3ccccc23)CC[N+](C)(C)CO1.[I-] (single isomer, unassigned) [Compound 16] | 10.5 µg/mL | 1.9 µg/mL | 2.1 µg/mL | 1.7 µg/mL | 1.9 µg/mL | – | 2.1 µg/mL | 2.6 µg/mL | 1.9 µg/mL | – | 195 °C | 10.5 µg/mL | 41.6 µg/mL | 5.2 µg/mL | IC90 ([11]; Streptococcus mutans, ATCC33402, 90% inhibitory concentration for bacterial growth, read-out: IC90 SMU 33402): 2.1 µg/mL; IC90 ([12]; read-out: IC90 ECO 35218): 41.6 µg/mL; IC90 ([15]; Escherichia coli, ATCC1403, 90% inhibitory concentration for bacterial growth, read-out: IC90 ECO 1403): 13.2 µg/mL
